We go through 5 molecules from patent US6583150B1, “Pharmaceutical composition based on polyaromatic compounds” (Laboratorie L. Lafon, priority 1999, dated 2003).

In data set [1] the test system is U-373MG. The experiment in a line: MTT cytotoxicity test, U-373MG. Format: cell-based. As to conditions: Homo sapiens, U373 MG, U-373MG glioblastoma, 72 hours, read-out: concentrations flanking the IC50. The method, then:
(§1) The influence of the compounds of formulae I and II on neoplastic cells was evaluated using the MTT calorimetric test. The principle of the MTT test is based on the mitochondrial reduction by metabolically active live cells of the yellow-colored product MTT (3-(4,5-dimethylthiazol-2-yl)-2,5-diphenyltetrazolium bromide) to a blue-colored product, formazan. The amount of formazan thus obtained is directly proportional to the amount of live cells present in the culture well(s). This amount of formazan is measured by spectrophotometry.
(§2) The cell lines are maintained in monolayer culture at 37° C. in stoppered culture dishes containing 25 MM HEPES MEM (Minimum Essential Medium) base medium. This medium, which is suitable for growing a range of varied diploid or primary mammalian cells, is then supplemented: […]
(§3) with a an amount of 5% FCS (Fetal Calf Serum) decomplemented at 56° C. for 1 hour, with 0.6 mg/mL of L-glutamine, with 200 IU/mL of penicillin, with […] of streptomycin, with 0.1 mg/mL of gentamicin.
(§4) The 12 human cancer cell lines used were obtained from the American Type Culture Collection (ATCC, Rockville, Md., USA). These 12 cell lines are:
(§5) U-373MG (code ATCC: HTB-17) and U-87MG (code ATCC: HTB-14) which are two glioblastomas, Experimentally: 100 μl of a cell suspension containing 200 000 to 50 000 (depending on the cell type used) cells/mL of culture medium are inoculated in flat-bottomed 96-well multi-well plates and are incubated at 37° C. under an atmosphere comprising 5% CO2 and 70% humidity. […] The intensity of the resulting blue coloration, and thus of the conversion of the yellow MTT product into blue formazan by the cells that are still alive at the end of the experiment is quantified by spectrophotometry using a DYNATECH IMMUNOASSAY SYSTEM machine at wavelengths of 570 nm and 630 nm corresponding, respectively, to the maximum absorption wavelengths of formazan and to the background noise. […]
Background: Tetrazolium assays rely on reduction of a dye to a coloured formazan, in cell work by metabolically active cells.

Data set [2] concerns A549. The data set is described as follows: MTT cytotoxicity test, A549. The settings on record: Homo sapiens, A549 non-small-cell lung cancer, 72 hours, read-out: concentrations flanking the IC50. Format: cell-based. As for the experimental part: as §1, §2, §3
(§6) The 12 human cancer cell lines used were obtained from the American Type Culture Collection (ATCC, Rockville, Md., USA). These 12 cell lines are: […]

Data set [3] relates to U-87MG. The experiment in a line: MTT cytotoxicity test, U-87MG. Format: cell-based. The settings on record: Homo sapiens, U-87MG glioblastoma, 72 hours, read-out: concentrations flanking the IC50. The method, then:
as §1, §2, §3, §4, §5

Data set [4] can be described thus: Determination of the maximum tolerated dose (MTD). Format: in vivo. The settings on record: mouse, in vivo, ip; single intraperitoneal administration, survival over 14 days, B6D2F1/Jico mice. The method, then: (§7) The evaluation of the maximum tolerated dose was carried out on 4- to 6-week-old B6D2F1/Jico mice. […] The value of the MTD (expressed in mg/kg) is determined from observing the survival rate of the animals over a period of 14 days after a single administration of the product under consideration. The change in the weight of the animals is also monitored over this period.

Data set [5] deals with 12 human tumor lines: U-87MG, U-373MG, SW 1088, T24, J82, HCT-15, LoVo, MCF7, T-47D, A549, A-427 and PC-3. The data set is described as follows: MTT cytotoxicity test, panel of the 12 human tumor lines. Format: cell-based. The settings on record: read-out: average IC50. The method, then: as §1, §2, §3, §4
U-373MG (code ATCC: HTB-17) and U-87MG (code ATCC: HTB-14) which are two glioblastomas, SW1088 (code ATCC: HTB-12) which is an astrocytoma, A549 (code ATCC: CCL-185) and A-427 (code ATCC: HTB-53) which are two non-small-cell lung cancers, HCT-15 (code ATCC: CCL-225) and LoVo (code ATCC: CCL-229) which are two colorectal cancers, T-47D (code ATCC: HTB-133) and MCF7 (code ATCC: HTB-22) which are two breast cancers, J82 (code ATCC: HTB-1) and T24 (code ATCC: HTB-4) which are two bladder cancers, PC-3 (code ATCC: CRL-1435) which is a prostate cancer.
Experimentally: 100 μl of a cell suspension containing 200 000 to 50 000 (depending on the cell type used) cells/mL of culture medium are inoculated in flat-bottomed 96-well multi-well plates and are incubated at 37° C. under an atmosphere comprising 5% CO2 and 70% humidity. After incubating for 24 hours, the culture medium is replaced with 100 μl of fresh medium containing either the various test compounds at concentrations ranging from 10^−5 to 10^−10 M or the solvent used to dissolve the test products (control condition). After incubating for 72 hours under the above conditions, the culture medium is replaced with 100 μl of a yellowish solution of MTT dissolved at a rate of 1 mg/mL in RPMI 1640. The microplates are reincubated for 3 hours at 37° C. and then centrifuged for 10 minutes at 400×g. The yellowish solution of MTT is removed and the blue formazan crystals formed at the cellular level are dissolved in 100 μl of DMSO. The microplates are then agitated for 5 minutes. The intensity of the resulting blue coloration, and thus of the conversion of the yellow MTT product into blue formazan by the cells that are still alive at the end of the experiment is quantified by spectrophotometry using a DYNATECH IMMUNOASSAY SYSTEM machine at wavelengths of 570 nm and 630 nm corresponding, respectively, to the maximum absorption wavelengths of formazan and to the background noise. Software built into the spectrophotometer calculates the average optical density values and also the standard deviation (Std. Dev.) and standard error of mean (SEM) values.
The inhibitory activity on the cell growth of the compounds of formula I and of formula II on the different tumor cell lines was compared with that of the natural product meridine (CRL 8348). All of the compounds of formula I and of formula II show significant inhibitory activity on the cell proliferation of the 12 human tumor lines: U-87MG, U-373MG, SW 1088, T24, J82, HCT-15, LoVo, MCF7, T-47D, A549, A-427 and PC-3 with an inhibitory concentration 50 (IC50) which is between 10^−6 M and 10^−10M, depending on the compounds and the tumor lines tested. By way of example, the values of the concentrations flanking the IC50 which are obtained on the various cell lines are given in table II: […]

Data set [6] deals with MCF7. The data set is described as follows: MTT cytotoxicity test, MCF7. It counts as cell-based. The settings on record: Homo sapiens, MCF7 breast cancer, 72 hours, read-out: concentrations flanking the IC50. The method, then:
as §1, §2, §3, §6

Data set [7] deals with B6D2F1/Jico mice. The data set is described as follows: Determination of the maximum tolerated dose (MTD). It counts as in vivo. The settings on record: single intraperitoneal administration, survival over 14 days. As for the experimental part:
as §7

Like-named read-outs stand apart in the source and are kept apart here.

On to `COc1ccnc2c1C(=O)c1c(-c3ccccc3NC(=O)C(F)(F)F)ccnc1C2=O` [CRL 8275, 6-Methoxy-4-(2-trifluoroacetamidophenyl)pyrido-[3,2-g]quinoline-5,10-dione], for which the IC50 was < 0.1 nM in data set [1], < 0.1 nM in data set [2], < 0.1 nM in data set [3] and 2.3 nM in data set [5] (Homo sapiens). Moreover, the MTD at 14 days in data set [4] came to 80 mg/kg.

Consider `COc1ccnc2c1-c1nc3ccccc3c3ccnc(c13)C2=O` [CRL 8276, 12-Methoxybenzo[b]pyrido[4,3,2-de][1,7]phenanthroline-8-one], for which the IC50 was < 0.1 nM in data set [1], < 0.1 nM in data set [3], < 0.1 nM in data set [6] and 2.1 nM in data set [5] (Homo sapiens). The MTD at 14 days in data set [4] was 80 mg/kg.

With `O=C1c2ncccc2C(=O)c2c(-c3ccccc3NC(=O)C(F)(F)F)ccnc21` [CRL 8277, 4-(2-Trifluoroacetamidophenyl)pyrido[3,2-g]quinoline-5,10-dione], the MTD at 14 days in data set [4] is > 40 mg/kg. Also, in data set [5] (Homo sapiens), the IC50 is 12.5 nM.

Consider `O=C1c2nccc(O)c2-c2nc3ccccc3c3ccnc1c23` [CRL 8348, meridine, reference compound], for which the results for the IC50 in data set [1] and in data set [5] (Homo sapiens) were 100 nM and 170 nM, respectively. Besides, in data set [4], the MTD at 14 days was > 160 mg/kg.

Take cystodamine [reference compound]: in data set [7], the MTD was >160 mg/kg. The IC50 in data set [5] (calculated from the cytotoxic activity on the 12 tumor lines studied) was 100 nM.

In general, MTD refers to the highest dose tested that stayed within the study's limit of toxicity. Lower therefore signals a narrow tolerated range.
